{
  "source": "patent US9097673B2",
  "about": "“Processes and kits for determining multi-drug resistance of cells” (ENZO LIFE SCIENCES, INC., priority 2010, dated 2015)",
  "tested_on": "A549 cell line",
  "assay": "Dye efflux flow cytometry MDR assay; for D-value, Novobiocin: test concentration or dose not given here; for D-value, Verapamil: test concentration or dose not given here",
  "type": "cell-based, human",
  "parameters": "key to D-value, Verapamil / D-value, Novobiocin: KS D value, 0 to 1; negative if control brighter than sample",
  "conditions": "for D-value, +4° C.: kept on ice without inhibitor",
  "from_the_text": "Kolmogorov-Smirnov statistics measures the difference between two distribution functions and generates a D value ranging between 0 and 1.0, with higher values indicating a greater difference between the distribution functions. The D value generated by the KS statistics was modified by ascribing a negative value if the fluorescence of a negative control (no inhibitor) was brighter than the fluorescence of the sample with inhibitor. The method was one of those recommended by the First International MDR1 Methods Detection Workshop (St. Jude Children's Research Hospital, Memphis, Tenn.).\nCells were grown in tissue culture dishes and on the day of assay they were trypsinized and washed twice with ice-cold PBS. Post-wash, the cells were re-suspended in cold phenol red indicator-free medium at a density of 1×10^6/ml. For each detection set, eighteen tubes (6 tubes without inhibitor and 3 tubes for each inhibitor tested, in triplicates) each containing 2.5-5×10^5/cells were prepared. Cells were centrifuged at 200×g for 5 min, and after discarding supernatant, re-suspended at 1×10^6/ml in ice-cold indicator-free medium containing Fluo-8™ AM or Rhod-4™ AM probes. Additionally, an aliquot of non-stained cells was prepared for background fluorescence measurements. Cells were incubated with the probe(s) on ice for 60 min, than centrifuged at 200×g for 5 min. After discarding the supernatant, cells were either washed twice with PBS or simply were spun down to remove the excess of the probe and resuspended at 5×10^5 cells/sample in 0.5 ml of following solutions:\n1. warm (37° C.) indicator-free medium containing vehicle only (3 tubes)\n2. warm (37° C.) indicator-free medium containing inhibitor (3 tubes for each inhibitor tested)\n3. ice-cold indicator-free medium (3 tubes)\nTube sets 1 and 2 were immediately transferred to a water bath (37° C.) and incubated for 90 min. Tube set 3 was kept on ice. Post incubation, 4 ml of ice-cold indicator-free medium was added per tube, tubes were centrifuged at 200×g for 5 min, supernatant was discarded, and cell pellet was re-suspended in the cold indicator-free medium and centrifuged again. Finally, cells were re-suspended in 0.5 ml of cold indicator-free medium and maintained on ice until analysis. Alternatively, cells were analyzed without washing. Flow cytometry experiments were performed as described in Example 3.",
  "key": {"[1]": {"conditions": "A549, dye efflux, representative experiment (Table 9)"}, "[2]": {"conditions": "Fluo-8 AM probe, dye efflux, A549, No Wash"}, "[3]": {"conditions": "Fluo-8 AM probe, dye efflux, A549, Wash"}},
  "data": [
    {"smiles": "CC(=O)OCOC(=O)CN(CC(=O)OCOC(C)=O)c1ccccc1OCCOc1cc(-c2c3ccc(=O)cc-3oc3cc(OCOC(C)=O)ccc23)ccc1N(CC(=O)OCOC(C)=O)CC(=O)OCOC(C)=O", "note": "[Fluo-8 ™ AM]", "values": [
      {"measurement": "D-value, 4° C.", "setting": "A549, dye efflux, kept on ice without inhibitor (Table 9)", "result": 0.80},
      {"measurement": "D-value, Cyclosporine A", "setting": "[1]", "result": 0.5},
      {"measurement": "D-value, Novobiocin", "setting": "[1]", "result": 0.57},
      {"measurement": "D-value, Probenecid", "setting": "[1]", "result": 0.33},
      {"measurement": "D-value, Verapamil", "setting": "[1]", "result": 0.02},
      {"measurement": "D-value, Cyclosporin A", "setting": "[2]", "result": 0.83},
      {"measurement": "D-value, Novobiocin", "setting": "[2]", "result": 0.57},
      {"measurement": "D-value, Probenecid", "setting": "[2]", "result": 0.33},
      {"measurement": "D-value, Verapamil", "setting": "[2]", "result": 0.12},
      {"measurement": "D-value, +4° C.", "setting": "[2]", "result": 0.77},
      {"measurement": "D-value, Cyclosporin A", "setting": "[3]", "result": 0.71},
      {"measurement": "D-value, Novobiocin", "setting": "[3]", "result": 0.46},
      {"measurement": "D-value, Probenecid", "setting": "[3]", "result": 0.18},
      {"measurement": "D-value, Verapamil", "setting": "[3]", "result": 0.11},
      {"measurement": "D-value, +4° C.", "setting": "[3]", "result": 0.75}
    ]}
  ]
}
